Assay type in all cases: functional
For experiment [1], the system named is Enterobacter cloacae. The experiment can be described thus: Antibacterial activity against Enterobacter cloacae 265A. The conditions noted are these: Enterobacter cloacae; read-out: MIC.
For experiment [2], the system named is Escherichia coli. The experiment can be described thus: Antibacterial activity against Escherichia coli EC14. The conditions noted are these: Escherichia coli; read-out: MIC.
Experiment [3] deals with Enterobacter cloacae. Briefly: Antibacterial activity against Enterobacter cloacae EB5. The settings on record: Enterobacter cloacae; read-out: MIC.
The subject of experiment [4] is Escherichia coli. Briefly: Antibacterial activity against Escherichia coli TEM. The settings on record: Escherichia coli; read-out: MIC.
Experiment [5] concerns Klebsiella pneumoniae. The experiment can be described thus: microbe, parasite or virus in culture. The settings on record: Klebsiella pneumoniae; read-out: MIC.
Description: Antibacterial activity against Klebsiella pneumoniae 1082E
In experiment [6] the test system is Klebsiella pneumoniae. The experiment can be described thus: Antibacterial activity against Klebsiella pneumoniae X26. The conditions noted are these: Klebsiella pneumoniae; read-out: MIC.
For experiment [7], the system named is Pseudomonas aeruginosa. The experiment can be described thus: Antibacterial activity against Pseudomonas aeruginosa X528. The settings on record: Pseudomonas aeruginosa; read-out: MIC.
Experiment [8] deals with Pseudomonas aeruginosa. Briefly: Antibacterial activity against Pseudomonas aeruginosa PS18. The settings on record: Pseudomonas aeruginosa; read-out: MIC.
Experiment [9] has as its system Staphylococcus aureus. The experiment can be described thus: Antibacterial activity against penicillin G resistance Staphylococcus aureus. The settings on record: Staphylococcus aureus; read-out: MIC.
In experiment [10] the test system is Staphylococcus aureus. Briefly: Antibacterial activity against penicillin G susceptible Staphylococcus aureus. The conditions noted are these: Staphylococcus aureus; read-out: MIC.
Another experiment has as its system Streptococcus pneumoniae. Briefly: Antibacterial activity against Streptococcus pneumoniae.
A further experiment relates to Serratia marcescens. The experiment can be described thus: Antibacterial activity against Serratia marcescens SE3. The settings on record: Serratia marcescens; read-out: MIC.
The next experiment deals with Streptococcus pyogenes. Briefly: Antibacterial activity against Streptococcus pyogenes. The settings on record: Streptococcus pyogenes; read-out: MIC.
In a further experiment the test system is Enterococcus faecium. Briefly: Antibacterial activity against Enterococcus faecium. The settings on record: Enterococcus faecium; read-out: MIC.
Experiment [11] concerns Pseudomonas aeruginosa. The experiment can be described thus: In vivo efficacy against Pseudomonas aeruginosa infected mice treated at 1 hr and 5 hr post infection.
Experiment [12] deals with Staphylococcus aureus. The experiment can be described thus: In vivo efficacy against Staphylococcus aureus infected mice treated at 1 hr and 5 hr post infection.
Experiment [13] has as its system Escherichia coli. Briefly: In vivo efficacy against Escherichia coli infected mice treated at 1 hr and 5 hr post infection.
Where [14] appears, read: Streptococcus pneumoniae, read-out: MIC.

Values after ≈ are worked out from the molar mass of the structure shown.

Take `CO/N=C(\C(=O)N[C@@H]1C(=O)N2C(C(=O)[O-])=C(C[n+]3cccc4ccoc43)CS[C@H]12)c1csc(N)n1`: the MIC is 8 µg/mL (≈ 15.5 µM) in the experiment with Enterobacter cloacae [1]; less than 0.008 µg/mL in the experiment with Escherichia coli [2]; 0.125 µg/mL (≈ 0.243 µM) in the experiment with Enterobacter cloacae [3]; 0.06 µg/mL (≈ 0.117 µM) in the experiment on Escherichia coli [4]; 4 µg/mL (≈ 7.77 µM) with Klebsiella pneumoniae [5]; less than 0.008 µg/mL with Klebsiella pneumoniae [6]. Moreover, the MIC in the experiment with Pseudomonas aeruginosa [7] is 4 µg/mL (≈ 7.77 µM); with Pseudomonas aeruginosa [8], 16 µg/mL (≈ 31.1 µM); in the experiment on Staphylococcus aureus [9], 16 µg/mL (≈ 31.1 µM); in the experiment with Staphylococcus aureus [10], 2 µg/mL (≈ 3.89 µM); in the experiment with Streptococcus pneumoniae (setting [14]), less than 0.008 µg/mL; in the experiment on Serratia marcescens, 0.125 µg/mL (≈ 0.243 µM). In addition, the values for the MIC in the experiment with Streptococcus pyogenes and with Enterococcus faecium were less than 0.008 µg/mL and more than 128 µg/mL, respectively.

`CO/N=C(\C(=O)N[C@@H]1C(=O)N2C(C(=O)[O-])=C(C[n+]3ccc(Cl)cc3)CS[C@H]12)c1csc(N)n1`: the MIC is 32 µg/mL (≈ 62.9 µM) in the experiment on Enterobacter cloacae [1]; 0.06 µg/mL (≈ 0.118 µM) in the experiment on Escherichia coli [2]; 0.25 µg/mL (≈ 0.491 µM) with Enterobacter cloacae [3]; 0.03 µg/mL (≈ 0.0589 µM) in the experiment on Escherichia coli [4]; 16 µg/mL (≈ 31.4 µM) in the experiment on Klebsiella pneumoniae [5]; 0.03 µg/mL (≈ 0.0589 µM) in the experiment on Klebsiella pneumoniae [6]. In addition, the MIC in the experiment on Pseudomonas aeruginosa [7] was found to be 4 µg/mL (≈ 7.86 µM); with Pseudomonas aeruginosa [8], 16 µg/mL (≈ 31.4 µM); with Staphylococcus aureus [9], 4 µg/mL (≈ 7.86 µM); in the experiment with Staphylococcus aureus [10], 2 µg/mL (≈ 3.93 µM); in the experiment on Streptococcus pneumoniae (setting [14]), 0.03 µg/mL (≈ 0.0589 µM); with Serratia marcescens it was 0.25 µg/mL (≈ 0.491 µM). For the same molecule, the MIC with Streptococcus pyogenes was 0.015 µg/mL (≈ 0.0295 µM); in the experiment on Enterococcus faecium, more than 128 µg/mL.

For the molecule `CO/N=C(\C(=O)N[C@@H]1C(=O)N2C(C(=O)[O-])=C(C[n+]3ccc4scc(C(=O)O)c4c3)CS[C@H]12)c1csc(N)n1`, the MIC in the experiment with Enterobacter cloacae [1] is 32 µg/mL (≈ 55.7 µM); with Escherichia coli [2], 0.015 µg/mL (≈ 0.0261 µM); in the experiment with Enterobacter cloacae [3], 0.125 µg/mL (≈ 0.218 µM); with Escherichia coli [4], 0.06 µg/mL (≈ 0.104 µM); in the experiment on Klebsiella pneumoniae [5], 4 µg/mL (≈ 6.96 µM); with Klebsiella pneumoniae [6] it was 0.015 µg/mL (≈ 0.0261 µM). In addition, the MIC was found to be 4 µg/mL (≈ 6.96 µM) with Pseudomonas aeruginosa [7]; 16 µg/mL (≈ 27.8 µM) in the experiment on Pseudomonas aeruginosa [8]; 16 µg/mL (≈ 27.8 µM) in the experiment on Staphylococcus aureus [9]; 2 µg/mL (≈ 3.48 µM) with Staphylococcus aureus [10]; 0.015 µg/mL (≈ 0.0261 µM) in the experiment with Streptococcus pneumoniae (setting [14]); 0.03 µg/mL (≈ 0.0522 µM) in the experiment on Serratia marcescens. Also, the values for the MIC in the experiment with Streptococcus pyogenes and with Enterococcus faecium were 0.03 µg/mL (≈ 0.0522 µM) and more than 128 µg/mL, respectively.

On to `CO/N=C(\C(=O)N[C@@H]1C(=O)N2C(C(=O)[O-])=C(C[n+]3ccc4sc(N)cc4c3)CS[C@H]12)c1csc(N)n1`, for which the MIC in the experiment on Enterobacter cloacae [1] is 8 µg/mL (≈ 14.7 µM); in the experiment on Escherichia coli [2], 0.015 µg/mL (≈ 0.0275 µM); in the experiment with Enterobacter cloacae [3], 0.06 µg/mL (≈ 0.11 µM); in the experiment on Escherichia coli [4], 0.03 µg/mL (≈ 0.055 µM); with Klebsiella pneumoniae [5], 2 µg/mL (≈ 3.67 µM); with Klebsiella pneumoniae [6] it was less than 0.008 µg/mL. For the same molecule, the MIC in the experiment with Pseudomonas aeruginosa [7] is 1 µg/mL (≈ 1.83 µM); in the experiment on Pseudomonas aeruginosa [8] it was 4 µg/mL (≈ 7.33 µM); in the experiment with Staphylococcus aureus [9], 4 µg/mL (≈ 7.33 µM); with Staphylococcus aureus [10] it was 0.5 µg/mL (≈ 0.916 µM); in the experiment on Streptococcus pneumoniae (setting [14]), less than 0.008 µg/mL; with Serratia marcescens, 0.06 µg/mL (≈ 0.11 µM). The MIC in the experiment on Streptococcus pyogenes was 0.015 µg/mL (≈ 0.0275 µM); in the experiment on Enterococcus faecium it was more than 128 µg/mL.

The term ED50 denotes the dose at which the effect has come halfway, by size or by number of responders. Low values mean an effect at a small dose, high ones a need for a large dose. Turning to `CO/N=C(\C(=O)N[C@@H]1C(=O)N2C(C(=O)[O-])=C(C[n+]3ccc(CC(=O)NO)cc3)CS[C@H]12)c1csc(N)n1` (stereo in doubt; 7), the values for the ED50 in the experiment on Pseudomonas aeruginosa [11], in the experiment on Staphylococcus aureus [12] and with Escherichia coli [13] were 19.6 mg/kg, 1.5 mg/kg and 0.04 mg/kg, respectively. In the experiment on Streptococcus pneumoniae, the MIC is 0.015 µg/mL (≈ 0.0274 µM).

Regarding `CO/N=C(\C(=O)N[C@@H]1C(=O)N2C(C(=O)O)=C(COC(C)=O)CS[C@H]12)c1csc(N)n1` [CEFOTAXIME], the MIC was 32 µg/mL (≈ 70.3 µM) in the experiment on Enterobacter cloacae [1]; 0.03 µg/mL (≈ 0.0659 µM) with Escherichia coli [2]; 0.25 µg/mL (≈ 0.549 µM) with Enterobacter cloacae [3]; 0.03 µg/mL (≈ 0.0659 µM) with Escherichia coli [4]; 1 µg/mL (≈ 2.2 µM) in the experiment with Klebsiella pneumoniae [5]; 0.008 µg/mL (≈ 0.0176 µM) in the experiment with Klebsiella pneumoniae [6]. The MIC came out at 32 µg/mL (≈ 70.3 µM) in the experiment on Pseudomonas aeruginosa [7]; 64 µg/mL (≈ 141 µM) with Pseudomonas aeruginosa [8]; 16 µg/mL (≈ 35.1 µM) in the experiment on Staphylococcus aureus [9]; 2 µg/mL (≈ 4.39 µM) in the experiment with Staphylococcus aureus [10]; 0.015 µg/mL (≈ 0.0329 µM) in the experiment with Streptococcus pneumoniae (setting [14]); 0.25 µg/mL (≈ 0.549 µM) in the experiment on Serratia marcescens. Also, the MIC in the experiment on Streptococcus pyogenes is 0.015 µg/mL (≈ 0.0329 µM); in the experiment on Enterococcus faecium, more than 128 µg/mL.

For the molecule `CO/N=C(\C(=O)N[C@@H]1C(=O)N2C(C(=O)[O-])=C(C[n+]3cscc3C)CS[C@H]12)c1csc(N)n1`, the MIC with Enterobacter cloacae [1] turned out to be 8 µg/mL (≈ 16.2 µM); with Escherichia coli [2], 0.06 µg/mL (≈ 0.121 µM); with Enterobacter cloacae [3], 0.25 µg/mL (≈ 0.505 µM); in the experiment on Escherichia coli [4] it was 0.06 µg/mL (≈ 0.121 µM); with Klebsiella pneumoniae [5], 8 µg/mL (≈ 16.2 µM); in the experiment with Klebsiella pneumoniae [6], 0.06 µg/mL (≈ 0.121 µM). In addition, the MIC in the experiment on Pseudomonas aeruginosa [7] stood at 16 µg/mL (≈ 32.4 µM); with Pseudomonas aeruginosa [8], 32 µg/mL (≈ 64.7 µM); with Staphylococcus aureus [9], 4 µg/mL (≈ 8.09 µM); in the experiment on Staphylococcus aureus [10], 2 µg/mL (≈ 4.04 µM); with Streptococcus pneumoniae (setting [14]), 0.03 µg/mL (≈ 0.0607 µM); in the experiment with Serratia marcescens it was 0.25 µg/mL (≈ 0.505 µM). Further, the MIC in the experiment on Streptococcus pyogenes turned out to be 0.03 µg/mL (≈ 0.0607 µM); with Enterococcus faecium, 32 µg/mL (≈ 64.7 µM).

On to `CO/N=C(\C(=O)N[C@@H]1C(=O)N2C(C(=O)[O-])=C(C[n+]3ccc4cnccc4c3)CS[C@H]12)c1csc(N)n1`, for which the MIC is 2 µg/mL (≈ 3.81 µM) with Enterobacter cloacae [1]; less than 0.008 µg/mL with Escherichia coli [2]; 0.03 µg/mL (≈ 0.0571 µM) in the experiment on Enterobacter cloacae [3]; less than 0.008 µg/mL with Escherichia coli [4]; 2 µg/mL (≈ 3.81 µM) with Klebsiella pneumoniae [5]; less than 0.008 µg/mL in the experiment with Klebsiella pneumoniae [6]. Moreover, the MIC was 2 µg/mL (≈ 3.81 µM) with Pseudomonas aeruginosa [7]; 2 µg/mL (≈ 3.81 µM) in the experiment with Pseudomonas aeruginosa [8]; 1 µg/mL (≈ 1.9 µM) in the experiment with Staphylococcus aureus [9]; 1 µg/mL (≈ 1.9 µM) in the experiment with Staphylococcus aureus [10]; less than 0.008 µg/mL with Streptococcus pneumoniae (setting [14]); 0.03 µg/mL (≈ 0.0571 µM) with Serratia marcescens. Further, the MIC in the experiment on Streptococcus pyogenes was less than 0.008 µg/mL; in the experiment with Enterococcus faecium it was 32 µg/mL (≈ 60.9 µM).

The values above are taken from ChEMBL document CHEMBL1124865, “Synthesis and biological evaluation of a series of parenteral 3'-quaternary ammonium cephalosporins” (J Med Chem, 1990).
